In the supplement of paper PMC10307832:

Columns and labels:
BI-D1870 + Dasatinib = compound: CC(C)CCN1c2nc(Nc3cc(F)c(O)c(F)c3)ncc2N(C)C(=O)C1C [BI-D1870] + Cc1nc(Nc2ncc(C(=O)Nc3c(C)cccc3Cl)s2)cc(N2CCN(CCO)CC2)n1 [Dasatinib] (partner 0.075 µM); assay: relative viability (nuclei count vs DMSO), 5 days (fraction); higher = more cells survive
How it was run: (§1)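 Nuclei were stained with Hoechst during a one-step fixation (final 0.05% Triton X-100, 1% formaldehyde, 1 ug/ml Hoechst) carried out 5 days after dosing, then counted on 4× images. The cells, lung cancer lines in 1536-well plates, had been dosed by pin tool the day after seeding with one drug alone or a fixed anchor-drug dose plus five library-drug doses (not always all listed) in √10 steps. Relative viability is the nuclei count in treated wells divided by that in vehicle wells, and each value is the median of duplicate plates.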

BI-D1870 + Luminespib = compound: CC(C)CCN1c2nc(Nc3cc(F)c(O)c(F)c3)ncc2N(C)C(=O)C1C [BI-D1870] + CCNC(=O)c1noc(-c2cc(C(C)C)c(O)cc2O)c1-c1ccc(CN2CCOCC2)cc1 [Luminespib] (partner 0.01 µM); assay: as above
How it was run: as §1

Row | Cell Line | relative viability (BI-D1870 + Dasatinib; first compound 0.04 µM) | relative viability (BI-D1870 + Dasatinib; first compound 0.1265 µM) | relative viability (BI-D1870 + Dasatinib; first compound 0.4 µM) | relative viability (BI-D1870 + Dasatinib; first compound 1.265 µM) | relative viability (BI-D1870 + Dasatinib; first compound 4 µM) | relative viability (BI-D1870 + Luminespib; first compound 0.04 µM) | relative viability (BI-D1870 + Luminespib; first compound 0.1265 µM) | relative viability (BI-D1870 + Luminespib; first compound 0.4 µM) | relative viability (BI-D1870 + Luminespib; first compound 1.265 µM) | relative viability (BI-D1870 + Luminespib; first compound 4 µM)
1 | NCI-H2342 | 0.333 | 0.313 | 0.315 | 0.329 | 0.406 | 0.706 | 0.718 | 0.711 | 0.758 | 0.907
2 | HCC-15 | 0.656 | 0.533 | 0.582 | 0.517 | 0.287 | 0.314 | 0.205 | 0.332 | 0.34 | 0.344
3 | A-427 | 0.775 | 0.593 | 0.706 | 0.756 | 0.793 | 1.06 | 0.764 | 0.77 | 1.11 | 0.879
4 | NCI-H2228 | 0.543 | 0.403 | 0.553 | 0.544 | 0.337 | 0.142 | 0.131 | 0.146 | 0.157 | 0.127
5 | NCI-H1734 | 0.464 | 0.455 | 0.436 | 0.471 | 0.484 | 0.19 | 0.175 | 0.188 | 0.187 | 0.222
6 | PC-14 | 0.27 | 0.241 | 0.272 | 0.239 | 0.259 | 0.237 | 0.279 | 0.126 | 0.233 | 0.119
7 | NCI-H1915 | 0.356 | 0.276 | 0.294 | 0.274 | 0.261 | 0.957 | 0.673 | 0.732 | 0.873 | 0.761
8 | NCI-H1666 | 0.839 | 0.84 | 0.701 | 0.824 | 0.744 | 1.02 | 0.977 | 1.01 | 1.05 | 0.825
9 | HCC-366 | 0.633 | 0.528 | 0.603 | 0.731 | 0.427 |  |  |  |  | 
10 | SK-MES-1 | 0.44 | 0.369 | 0.323 | 0.362 | 0.3 | 0.904 | 0.649 | 0.66 | 0.535 | 0.251
11 | SW 1573 | 0.625 | 0.456 | 0.594 | 0.472 | 0.213 | 0.219 | 0.172 | 0.297 | 0.191 | 0.143
12 | NCI-H661 | 1.04 | 0.867 | 0.874 | 0.898 | 0.708 | 0.961 | 0.935 | 0.988 | 1.01 | 0.877
13 | PC-3 [JPC-3] | 1 | 0.892 | 1.01 | 1.12 | 0.947 | 0.783 | 0.645 | 0.717 | 0.825 | 0.677
14 | NCI-H1623 | 0.558 | 0.581 | 0.527 | 0.473 | 0.452 | 0.597 | 0.521 | 0.625 | 0.462 | 0.499
15 | LC-2-ad | 1.05 | 0.576 | 0.473 | 0.578 | 0.43 | 1.2 | 0.953 | 0.943 | 0.911 | 0.769
16 | CAL-12T | 0.489 | 0.272 | 0.411 | 0.512 | 0.176 | 0.332 | 0.211 | 0.313 | 0.419 | 0.491
17 | RERF-LC-KJ | 0.968 | 0.72 | 0.762 | 0.814 | 0.495 | 1.42 | 1.16 | 1.22 | 1.3 | 0.552

Row | Cell Line | relative viability (BI-D1870 + Dasatinib; first compound 0.04 µM) | relative viability (BI-D1870 + Dasatinib; first compound 0.1265 µM) | relative viability (BI-D1870 + Dasatinib; first compound 0.4 µM) | relative viability (BI-D1870 + Dasatinib; first compound 1.265 µM) | relative viability (BI-D1870 + Dasatinib; first compound 4 µM) | relative viability (BI-D1870 + Luminespib; first compound 0.04 µM) | relative viability (BI-D1870 + Luminespib; first compound 0.1265 µM) | relative viability (BI-D1870 + Luminespib; first compound 0.4 µM) | relative viability (BI-D1870 + Luminespib; first compound 1.265 µM) | relative viability (BI-D1870 + Luminespib; first compound 4 µM)
18 | NCI-H1650 | 0.266 | 0.393 | 0.32 | 0.281 | 0.273 | 0.197 | 0.212 | 0.193 | 0.212 | 0.2
19 | BEN | 0.291 | 0.293 | 0.349 | 0.38 | 0.304 | 0.409 | 0.358 | 0.441 | 0.356 | 0.35
20 | EMC-BAC-2 | 0.344 | 0.326 | 0.377 | 0.316 | 0.296 | 1.2 | 1.08 | 1.02 | 1.38 | 1.21
21 | LU99A | 0.753 | 0.51 | 0.512 | 0.467 | 0.425 | 0.263 | 0.223 | 0.276 | 0.258 | 0.229
22 | ABC-1 | 0.598 | 0.53 |  | 0.577 | 0.409 | 0.581 | 0.776 |  | 0.512 | 0.371
23 | NCI-H2170 | 0.735 | 0.584 | 0.529 | 0.54 | 0.575 | 0.817 | 0.723 | 0.751 | 0.65 | 0.67
24 | NCI-H2347 | 0.345 | 0.319 | 0.332 | 0.306 | 0.297 | 0.738 | 0.376 | 0.367 | 0.48 | 0.402
25 | NCI-H1993 | 0.663 | 0.48 | 0.697 | 0.868 | 0.467 | 1 | 0.629 | 0.972 | 1 | 0.834
26 | NCI-H322M | 0.236 | 0.27 | 0.234 | 0.234 | 0.283 | 0.956 | 0.84 | 0.884 | 0.88 | 0.774
27 | NCI-H838 | 0.342 | 0.244 | 0.314 | 0.274 | 0.243 | 0.309 | 0.343 | 0.236 | 0.295 | 0.319
28 | HARA | 0.195 | 0.195 | 0.233 | 0.282 | 0.302 | 0.939 | 0.626 | 0.671 | 0.486 | 0.666
29 | NCI-H2087 | 0.93 | 0.798 | 0.921 | 0.891 | 0.743 | 0.165 | 0.18 | 0.206 | 0.213 | 0.186
30 | NCI-H1437 | 0.46 | 0.343 | 0.413 | 0.394 | 0.285 | 1.17 | 1.06 | 1.11 | 1.11 | 0.855
31 | NCI-H1792 | 0.841 | 0.68 | 0.599 | 0.829 | 0.645 | 0.505 | 0.432 | 0.393 | 0.592 | 0.344
32 | ChaGo-K-1 | 0.662 | 0.516 | 0.606 | 0.549 | 0.51 | 0.643 | 0.406 | 0.601 | 0.631 | 0.551
33 | NCI-H650 | 0.454 | 0.419 | 0.431 | 0.403 | 0.35 | 0.867 | 0.641 | 0.732 | 0.918 | 0.481
